Experimental data reported in ChEMBL document CHEMBL1201862, “PubChem BioAssay data set” (2004).
The source made the active and inactive calls.

What was measured:
[1] = non-specific cell cytotoxicity, dose response, cytotoxicity control for PAX8 inhibitor project, plate reader, dry powder samples (AID 743021); assay type: functional, cell-based
[2] = biological target: T1, Ubiquitin-conjugating enzyme E2 N (Homo sapiens, UniProt P61088); assay type: functional;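 also: Dose-response confirmation in a TR-FRET assay detecting UBC13-driven polyubiquitin chain formation, inhibition measured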
T1 sequence (P61088 whole entry): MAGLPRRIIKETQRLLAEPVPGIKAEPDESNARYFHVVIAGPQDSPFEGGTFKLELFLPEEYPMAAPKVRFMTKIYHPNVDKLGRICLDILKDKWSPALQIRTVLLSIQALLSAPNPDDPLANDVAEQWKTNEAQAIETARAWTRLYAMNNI

[3] = biological target: Paired box protein Pax-8 (Homo sapiens, UniProt Q06710); assay: inhibitors of PAX8-driven TPO luciferase reporter, dose response, RMG-I cells, cherry-pick (AID 687027); assay type: functional, cell-based;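 also: luciferase reporter driven by Pax8 target thyroperoxidase promoter measured by SteadyGlo luminescence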
[4] = MITF Orthogonal Assay: SK-MEL-5 CTG Assay Measured in Cell-Based System Using Plate Reader - 2084-02_Inhibitor_Dose_DryPowder_Activity_Set7.; assay type: functional
[5] = MITF: Counter assay: A375 proliferation Measured in Cell-Based System Using Plate Reader - 2084-03_Inhibitor_Dose_DryPowder_Activity_Set8.; assay type: functional; conditions: A-375
[6] = biological target: T2, Trace amine-associated receptor 1 (Homo sapiens, UniProt Q96RJ0); assay: Counterscreen for agonists of the human trace amine associated receptor 1 (hTAAR1): Fluorescence-based cell-based high throughput dose response assay to identify hTAAR1 agonist that also desensitize TAAR1 receptor response.; assay type: functional
T2 sequence (Q96RJ0 whole entry): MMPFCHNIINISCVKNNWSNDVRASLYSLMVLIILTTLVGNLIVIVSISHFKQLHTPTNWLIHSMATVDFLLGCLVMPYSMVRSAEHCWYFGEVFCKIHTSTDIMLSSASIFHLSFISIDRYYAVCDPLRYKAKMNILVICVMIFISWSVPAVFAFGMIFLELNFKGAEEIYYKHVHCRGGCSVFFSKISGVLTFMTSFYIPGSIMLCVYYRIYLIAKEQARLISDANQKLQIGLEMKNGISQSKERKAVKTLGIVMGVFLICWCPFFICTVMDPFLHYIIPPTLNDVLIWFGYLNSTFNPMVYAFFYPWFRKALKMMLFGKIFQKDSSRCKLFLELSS

[7] = cells; assay type: functional, cell-based
[8] = biological target: T2, Trace amine-associated receptor 1; assay: Fluorescence-based cell-based high throughput dose response assay to identify agonists of the human trace amine associated receptor 1 (TAAR1).; assay type: functional
[9] = cells; assay type: functional, cell-based; remark: listed apart in the source
[10] = cytotoxicity in OVCAR8 ovarian cancer cells, dose response, PAX8 project, cell-based, plate reader, dry powder samples (AID 743197); assay type: functional; conditions: OVCAR-8
[11] = NIH:OVCAR-3 ovarian cancer cell cytotoxicity, dose response, PAX8 inhibitor project, plate reader, dry powder samples (AID 743044); assay type: functional, cell-based
[12] = IGROV1 ovarian cancer cell cytotoxicity, dose response, PAX8 inhibitor project, plate reader, dry powder samples (AID 743043); assay type: functional, cell-based; conditions: IGROV-1
[13] = biological target: Tyrosyl-DNA phosphodiesterase 2 (Homo sapiens, UniProt O95551); assay: human TDP2 enzyme inhibitors, dose response, biochemical, epi absorbance, IC50 (AID 743297)
[14] = biological target: T3, Mannose-6-phosphate isomerase (Homo sapiens, UniProt P34949); assay: human PMI inhibitors, high substrate, primary screen, biochemical, fluorescence intensity, high mannose 6-phosphate (AID 1220)
T3 sequence (P34949 whole entry): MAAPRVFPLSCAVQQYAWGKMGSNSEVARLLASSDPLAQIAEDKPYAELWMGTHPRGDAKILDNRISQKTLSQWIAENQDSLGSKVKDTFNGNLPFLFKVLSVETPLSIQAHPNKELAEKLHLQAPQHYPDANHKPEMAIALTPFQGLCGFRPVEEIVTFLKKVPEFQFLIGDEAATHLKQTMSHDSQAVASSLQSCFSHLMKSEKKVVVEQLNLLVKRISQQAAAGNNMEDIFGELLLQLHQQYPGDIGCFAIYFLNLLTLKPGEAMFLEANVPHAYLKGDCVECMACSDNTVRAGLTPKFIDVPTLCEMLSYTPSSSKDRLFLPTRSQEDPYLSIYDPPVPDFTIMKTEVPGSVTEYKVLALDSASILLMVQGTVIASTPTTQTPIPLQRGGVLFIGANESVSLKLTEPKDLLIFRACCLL

Chain of Paired box protein Pax-8 (Q06710 whole entry): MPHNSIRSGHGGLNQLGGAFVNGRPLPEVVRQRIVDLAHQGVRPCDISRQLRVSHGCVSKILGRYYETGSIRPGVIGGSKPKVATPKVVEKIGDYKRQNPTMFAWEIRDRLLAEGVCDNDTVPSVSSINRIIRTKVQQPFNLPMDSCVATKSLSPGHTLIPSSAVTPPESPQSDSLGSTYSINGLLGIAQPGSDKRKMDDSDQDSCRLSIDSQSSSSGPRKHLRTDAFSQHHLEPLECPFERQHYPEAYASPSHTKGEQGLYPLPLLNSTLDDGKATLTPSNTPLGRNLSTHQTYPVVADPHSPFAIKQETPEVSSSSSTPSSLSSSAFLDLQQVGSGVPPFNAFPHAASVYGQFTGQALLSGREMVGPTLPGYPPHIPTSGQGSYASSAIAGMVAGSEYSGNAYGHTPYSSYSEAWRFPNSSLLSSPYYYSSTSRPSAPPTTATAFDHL
Chain of Tyrosyl-DNA phosphodiesterase 2 (O95551 whole entry): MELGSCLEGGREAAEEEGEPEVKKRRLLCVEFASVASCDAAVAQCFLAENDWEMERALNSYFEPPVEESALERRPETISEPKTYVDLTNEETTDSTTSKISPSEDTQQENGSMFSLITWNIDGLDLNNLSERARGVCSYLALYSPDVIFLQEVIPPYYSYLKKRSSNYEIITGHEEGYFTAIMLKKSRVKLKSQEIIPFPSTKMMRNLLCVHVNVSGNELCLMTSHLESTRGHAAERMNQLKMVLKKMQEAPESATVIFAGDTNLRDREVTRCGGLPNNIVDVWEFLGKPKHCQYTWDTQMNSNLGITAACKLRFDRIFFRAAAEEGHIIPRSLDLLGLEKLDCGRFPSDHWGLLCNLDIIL

SMILES: CCC[C@@H](CN[C@@H](CNC)[C@H](C)CC)NCC1CCC(C(C)(C)C)CC1 (stereo not given in full)
- AC50 [1]: 37.7 µM (active)
- IC50 [2]: > 20 µM (inactive)
- AC50 [3]: 14.4 µM (active)

SMILES: COc1ccc(NC2=CC(=O)c3ccccc3C2=O)cc1
- AC50 [4]: 0.838 µM (active)
- AC50 [5]: > 70 µM (inactive)

SMILES: CC(C)=C1C2CCC1C(C(=O)NCCc1ccccc1)C2C(=O)O (stereo not given)
- IC50 [6]: 2.42 µM (active)
- EC50 [7]: > 29.9 µM (inactive)
- EC50 [8]: 0.189 µM (active)
- IC50 [9]: > 29.9 µM (inactive)

SMILES: C[C@@H]1CN([C@H](C)CO)C(=O)c2cc(NC(=O)CCC(F)(F)F)ccc2O[C@@H](C)CCCCO[C@@H]1CN(C)Cc1ccc(Cl)c(Cl)c1
- AC50 [10]: 61 µM (active)
- AC50 [11]: 33.3 µM (active)
- AC50 [3]: 7.47 µM (active)
- AC50 [12]: 45.7 µM (active)

SMILES: Nn1cnnc1N/N=C\c1ccc(-c2ccccc2[N+](=O)[O-])o1
- IC50 [13]: > 128 µM (inactive)
- IC50 [14]: > 50 µM (not active)
